The supplement of paper PMC10307832

Tests used:
Assay in all cases: relative viability (nuclei count vs DMSO), 5 days (fraction); higher = more cells survive
[1] = compound: CCN1CCC(CC1)N2C=C(N=N2)CNC3=CC4=C(C(=CN=C4C(=C3)Cl)C#N)NC5=CC(=C(C=C5)F)Cl [KIN001-266] + CC(=O)Nc1cccc(-n2c(=O)n(C3CC3)c(=O)c3c(Nc4ccc(I)cc4F)n(C)c(=O)c(C)c32)c1 [Trametinib] (partner 0.02 µM)
Summary of the method: (§1)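 Medians of duplicate plates are given as relative viability. That measure is the nuclei count in treated wells divided by the count in vehicle wells. Counts were taken on 4× images of lung cancer cell lines in 1536-well plates, 5 days after pin-tool dosing the day after seeding with one drug alone or a fixed anchor-drug dose plus five library-drug doses (not always all listed) in √10 steps.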

[2] = compound: CCN1CCC(CC1)N2C=C(N=N2)CNC3=CC4=C(C(=CN=C4C(=C3)Cl)C#N)NC5=CC(=C(C=C5)F)Cl [KIN001-266] + COc1cccc2cc(-c3nc([C@H]4CC[C@H](C(=O)O)CC4)n4ncnc(N)c34)[nH]c12 [OSI-027] (partner 0.5 µM)
Summary of the method: as §1

[3] = compound: CCN1CCC(CC1)N2C=C(N=N2)CNC3=CC4=C(C(=CN=C4C(=C3)Cl)C#N)NC5=CC(=C(C=C5)F)Cl [KIN001-266] + CS(=O)(=O)CCNCc1ccc(-c2ccc3ncnc(Nc4ccc(OCc5cccc(F)c5)c(Cl)c4)c3c2)o1 [Lapatinib] (partner 2 µM)
Summary of the method: as §1

[4] = compound: CCN1CCC(CC1)N2C=C(N=N2)CNC3=CC4=C(C(=CN=C4C(=C3)Cl)C#N)NC5=CC(=C(C=C5)F)Cl [KIN001-266] + C[C@]1(O)C[C@@H](c2nc(-c3ccc4ccc(-c5ccccc5)nc4c3)c3c(N)nccn32)C1 [Linsitinib] (partner 1 µM)
Summary of the method: as §1

Row | Cell Line | relative viability ([1]; first compound 0.08 µM) | relative viability ([1]; first compound 0.253 µM) | relative viability ([1]; first compound 0.8 µM) | relative viability ([1]; first compound 2.53 µM) | relative viability ([1]; first compound 8 µM) | relative viability ([2]; first compound 0.08 µM) | relative viability ([2]; first compound 0.253 µM) | relative viability ([2]; first compound 0.8 µM) | relative viability ([2]; first compound 2.53 µM) | relative viability ([2]; first compound 8 µM) | relative viability ([3]; first compound 0.08 µM) | relative viability ([3]; first compound 0.253 µM) | relative viability ([3]; first compound 0.8 µM) | relative viability ([3]; first compound 2.53 µM) | relative viability ([3]; first compound 8 µM) | relative viability ([4]; first compound 0.08 µM) | relative viability ([4]; first compound 0.253 µM) | relative viability ([4]; first compound 0.8 µM) | relative viability ([4]; first compound 2.53 µM) | relative viability ([4]; first compound 8 µM)
1 | NCI-H1395 | 1.02 | 1.11 | 1.08 | 0.925 | 0.985 | 0.719 | 0.761 | 0.715 | 0.594 | 0.591 | 1.28 | 1.13 | 1.25 | 0.935 | 1.16 | 1.06 | 1.02 | 1.19 | 1.11 | 0.949
2 | NCI-H1437 | 0.581 | 0.577 | 0.539 | 0.561 | 0.383 | 0.938 | 0.91 | 0.862 | 0.85 | 0.56 | 0.781 | 0.819 | 0.746 | 0.798 | 0.483 | 1.07 | 1 | 1.03 | 1.03 | 0.583
3 | NCI-H1651 | 0.847 | 0.833 | 0.772 | 0.771 | 0.854 | 0.709 | 0.787 | 0.743 | 0.753 | 0.636 | 0.912 | 0.931 | 0.85 | 0.962 | 0.84 | 1.08 | 1.02 | 0.948 | 0.998 | 0.861
4 | NCI-H1666 | 0.909 | 0.897 | 0.713 | 0.855 | 0.761 | 0.838 | 0.879 | 0.88 | 0.849 | 0.802 | 0.804 | 0.646 | 0.671 | 0.646 | 0.509 | 1.02 | 0.861 | 0.869 | 0.825 | 0.674
5 | NCI-H1734 | 0.671 | 0.715 | 0.606 | 0.672 | 0.608 | 0.621 | 0.583 | 0.578 | 0.549 | 0.522 | 1.1 | 1.32 | 1.03 | 0.982 | 1.02 | 0.812 | 0.876 | 0.735 | 0.848 | 0.856
6 | NCI-H1755 | 0.727 | 0.802 | 0.775 | 0.792 | 0.684 | 0.74 | 0.739 | 0.679 | 0.723 | 0.651 | 0.987 | 1.04 | 1.06 | 0.996 | 0.987 | 1 | 0.973 | 0.965 | 0.955 | 0.844
7 | NCI-H1792 | 0.372 | 0.341 | 0.43 | 0.416 | 0.476 | 0.772 | 0.711 | 0.729 | 0.732 | 0.691 | 0.894 | 0.916 | 0.86 | 0.925 | 0.853 | 0.544 | 0.471 | 0.515 | 0.603 | 0.533
8 | NCI-H1793 | 0.436 | 0.452 |  | 0.39 | 0.299 | 0.332 | 0.254 | 0.231 | 0.258 | 0.204 | 0.646 | 0.643 | 0.81 | 0.485 | 0.561 | 0.806 | 0.829 | 0.75 | 0.879 | 1.03
9 | NCI-H1915 | 0.312 | 0.302 | 0.298 | 0.293 | 0.223 | 0.703 | 0.635 | 0.629 | 0.661 | 0.49 | 0.959 | 0.974 | 1.02 | 1.02 | 0.993 | 1.1 | 1.1 | 1.1 | 1.06 | 0.998
10 | NCI-H1944 | 0.419 | 0.401 | 0.324 | 0.393 | 0.41 | 0.46 | 0.473 | 0.373 | 0.44 | 0.343 | 0.826 | 0.895 | 0.774 | 0.816 | 0.828 | 1.3 | 1.23 | 1.14 | 1.29 | 1.22
11 | NCI-H1975 | 0.435 | 0.343 | 0.346 | 0.461 | 0.325 | 0.692 | 0.776 | 0.769 | 0.691 | 0.555 | 0.902 | 0.938 | 1.03 | 1.05 | 0.969 | 0.981 | 1.04 | 1.08 | 1.02 | 0.958
12 | NCI-H1993 | 0.559 | 0.52 | 0.478 | 0.475 | 0.522 | 0.562 | 0.537 | 0.607 | 0.582 | 0.63 | 0.896 | 0.775 | 0.841 | 0.793 | 0.746 | 0.714 | 0.657 | 0.828 | 0.687 | 0.797
13 | NCI-H2009 | 0.296 | 0.313 | 0.273 | 0.23 | 0.253 | 0.711 | 0.686 | 0.744 | 0.493 | 0.41 | 0.981 | 1.07 | 0.905 | 0.927 | 0.645 | 1.23 | 1.12 | 1.2 | 1.16 | 1.05
14 | NCI-H2023 | 0.51 | 0.578 | 0.533 | 0.447 | 0.456 | 0.449 | 0.437 | 0.379 | 0.368 | 0.241 | 0.774 | 0.971 | 1.09 | 0.855 | 0.34 | 0.696 | 0.706 | 0.696 | 0.617 | 0.481
